Laboratory results published in patent US10967086B2, “Silver nanoparticle-enhanced photosensitizers as antibiofilm agents” (University Of Cincinnati, priority 2014, dated 2021).
Structures can show the parent of a compound that is named as a salt.

Legend:
[1] = Loading efficiency of photosensitizers in the hybrids (UV-Vis absorption); type: physicochemical; conditions: named photosensitizer loaded into Ag@mSiO2@photosensitizer hybrid; Example 1
Method: The loading efficiencies of the photosensitizers in the hybrids were determined by UV-Vis absorption. […] Zeta potential measurements were carried out to further investigate the surface properties of the hybrids.
The morphology of the Ag@mSiO2@photosensitizer hybrids was characterized by a Phillips Biotwin 12 transmission electron microscope (FEI). TEM samples were prepared by directly applying 10 μL of the sample ethanol solution onto a carbon-coated copper grid (300 mesh, EMS) and left to dry at room temperature. UV-Vis absorption spectra were measured using a UV-Vis spectrometer (USB4000-ISS, Ocean Optics). The loading efficiency of photosensitizers was determined by measuring the photosensitizers in the supernatant after centrifugation via UV-Vis absorption spectra. The Ag^+ concentration was measured by a triple quadruple ICP-MS (ICP-QQQ, Agilent Technologies).

[2] = test system: Escherichia coli (ATCC 35218); assay: Photodynamic inactivation assay, white light, plate count; type: cell-based; conditions: Example 2
Method: (§1) Photodynamic Inactivation Assays. Typically, overnight cultures of Staphylococcus epidermidis (ATCC 35984), Escherichia coli (ATCC 35218), and Acinetobacter baumannii (ATCC 19606) were inoculated into PBS buffer solution (pH=7.4) and mixed with a series of concentrations of Ag@mSiO2@HPIX hybrid, HPIX (dissolved in the same PBS buffer solution), or Ag@mSiO2 nanoparticles. All bacterial suspensions (200 μL) were then placed in the wells of 96-well plates. The final cell concentration of the suspensions was between about 10^6 and 10^7 colony-forming units per mL (CFU/mL). The wells were illuminated with different fluences. After illumination, a plate count was performed. Bacterial viability was determined by a modified version of the Miles and Misra method.
(§2) The suspensions were serially 10-fold diluted with PBS. Then, drops of 10 μL of each dilution were applied onto MH II agar plates. Plates were streaked in triplicate and incubated for 18-24 h at 37° C. in the dark before counting. A non-coherent, white light source with interchangeable fiber bundle (model LC-122, LumaCare) was used in all photoinactivation experiments. The irradiance at the position of the samples was kept at 300 mW/cm^2, as measured by a laser power meter (Model 840011, SPER Scientific). […]

[3] = test system: Acinetobacter baumannii (ATCC 19606); assay: as above; type: cell-based; conditions: Example 2
Method: as §1, §2

[4] = test system: Staphylococcus epidermidis (ATCC 35984); assay: as above; type: cell-based
Method: as §1
(§3) The suspensions were serially 10-fold diluted with PBS. Then, drops of 10 μL of each dilution were applied onto MH II agar plates. Plates were streaked in triplicate and incubated for 18-24 h at 37° C. in the dark before counting. A non-coherent, white light source with interchangeable fiber bundle (model LC-122, LumaCare) was used in all photoinactivation experiments. The irradiance at the position of the samples was kept at 300 mW/cm^2, as measured by a laser power meter (Model 840011, SPER Scientific).
Ag@mSiO2@HPIX was used as a model system in the PDI study. Ag@mSiO2@HPIX was first tested with S. epidermidis, a Gram-positive bacterium. […]

T. rubrum (ATCC 28188) = assay: Photodynamic inactivation of T. rubrum, LED, plate count; type: cell-based, Tricophyton rubrum
Method: The in vitro PDI of T. rubrum (ATCC 28188) was investigated using different concentrations of Ag@mSiO2@HPIX hybrids, pure HPIX and Ag@mSiO2. Control experiments were carried out without the LED illumination. […] Separately, T. rubrum samples were treated with an LED light source (400 nm, 54 mW/cm2), after incubating for 30 min. with different concentrations of the Ag@mSiO2@HPIX hybrids, free HPIX, and Ag@mSiO2, respectively. […] Plate count method was employed to determine the viable fungal count, after the growth of the T. rubrum became visible. […] In these experiments, the pure HPIX and Ag@mSiO2@HPIX hybrids have the same concentration of HPIX while the amounts of Ag in Ag@mSiO2@HPIX hybrids and Ag@mSiO2 was also kept constant. The enhancement of antifungal PDI efficacy of Ag@mSiO2@HPIX hybrids is defined as log10(enhancement)=log10(Ag@mSiO2@HPIX_killing)−log10(Ag@mSiO2_killing)−log10(HPIX_killing)

[5] = test system: Escherichia coli (ATCC 35218) biofilm; assay: Photodynamic inactivation of biofilms, LED, plate count; type: cell-based
Method: (§4) Typically, overnight biofilms of Escherichia coli (ATCC 35218), and S. aureus (MRSA) (ATCC BAA44) were washed with PBS buffer solution (pH=7.4), mixed with a series of concentrations of Ag@mSiO2@HPIX hybrid, HPIX (dissolved in the same PBS buffer solution), or Ag@mSiO2 nanoparticles, and these mixtures were incubated for an hour. All biofilms were illuminated with different fluences from a light emitting diode. After illumination, the biofilm was washed to remove the nanoparticle solution or HPIX and disrupted biofilm. A serial dilution was performed and 10 μL of each dilution was plated on an MHB place and incubated for 24 hours at 37° C. Bacterial biofilm viability was determined by a modified version of the Miles and Misra method.
as §3
(§5) The in vitro PDI of MRSA (ATCC BAA44) and E. coli (ATCC 35218) was investigated using different concentrations of Ag@mSiO2@HPIX hybrids, pure HPIX and Ag@mSiO2. Control experiments were carried out without the LED illumination. […] Separately, MRSA and E. coli samples were treated with an LED light source (400 nm, 1000 mW/cm2), after incubating for 1 h. with different concentrations of the Ag@mSiO2@HPIX hybrids, free HPIX, and Ag@mSiO2, respectively. […] Plate count method was employed to determine the viable biofilm count, after the growth of the biofilm became visible. […] In these experiments, the pure HPIX and Ag@mSiO2@HPIX hybrids have the same concentration of HPIX while the amounts of Ag in Ag@mSiO2@HPIX hybrids and Ag@mSiO2 was also kept constant.
(§6) The enhancement of antibiofilm PDI efficacy of Ag@mSiO2@HPIX hybrids is defined as log10(enhancement)=log10(Ag@mSiO2@HPIX_killing)−log10(Ag@mSiO2_killing)−log10(HPIX_killing)

[6] = test system: S. aureus (MRSA) (ATCC BAA44) biofilm; assay: as above; type: cell-based
Method: as §4, §3, §5, §6

[7] = dark control, tested concentrations
[8] = LED 400 nm, 1000 mW/cm2 (blue LED 1 W/cm^2, up to 90 min), after 1 h incubation

Compound: tris(2,2′-bipyridyl)dichlororuthenium(II) hexahydrate [RuBPy]
- loading efficiency [1]: 28.3 µg/mg

Compound: CCC1=C(C)c2cc3[nH]c(cc4[nH]c(cc5nc(cc1n2)C(C)=C5CC)c(C)c4CCC(=O)O)c(CCC(=O)O)c3C [PIX, meso-porphyrin IX]
- loading efficiency [1]: 750 µg/mg

Compound: Cc1cc2nc3c(=O)[nH]c(=O)nc-3n(C[C@H](O)[C@H](O)[C@H](O)CO)c2cc1C [Riboflavin, riboflavin]
- killing efficacy under visible light and near-infrared irradiations [2]: needs visible light excitation to display rather moderate antibacterial effect
- killing efficacy under visible light and near-infrared irradiations [3]: needs visible light excitation to display rather moderate antibacterial effect
- killing efficacy under visible light and near-infrared irradiations ([4]; Example 2): needs visible light excitation to display rather moderate antibacterial effect

Compound: O=C([O-])c1ccc(C2=C3C=CC(=N3)C(c3ccc(C(=O)[O-])cc3)=C3C=CC(=N3)C(=c3ccc(=C([O-])[O-])cc3)c3ccc([n-]3)C(c3ccc(C(=O)[O-])cc3)=C3C=CC2=N3)cc1.[67Cu+2].[H+].[H+].[H+].[H+] [Cu-TCPP, Cu(II) meso-tetra(4-carboxyphenyl) porphine]
- loading efficiency [1]: 260.5 µg/mg

Compound: O=C(O)c1ccc(-c2c3nc(c(-c4ccc(C(=O)O)cc4)c4ccc([nH]4)c(-c4ccc(C(=O)O)cc4)c4nc(c(-c5ccc(C(=O)O)cc5)c5ccc2[nH]5)C=C4)C=C3)cc1 [TCPP, meso-tetra(4-carboxyphenyl) porphine]
- loading efficiency [1]: 140.7 µg/mg

Compound: O=C1OC2(c3cc(I)c(O)c(I)c3Oc3c2cc(I)c(O)c3I)c2c(Cl)c(Cl)c(Cl)c(Cl)c21 [RB, rose bengal]
- loading efficiency [1]: 33.6 µg/mg

Compound: CC1=C(CCC(=O)O)c2cc3[nH]c(cc4nc(cc5[nH]c(cc1n2)c(C)c5C(C)O)C(C)=C4C(C)O)c(C)c3CCC(=O)O (stereo not shown) [HPIX, hematoporphyrin IX dihydrochloride]
- loading efficiency [1]: 27.4 µg/mg
- PDI efficacy under LED illumination (T. rubrum (ATCC 28188); LED 400 nm, 54 mW/cm2, after 30 min incubation): negligible PDI efficacy
- antifungal effect without LED illumination (T. rubrum (ATCC 28188); [7]): None of the Ag@mSiO2@HPIX hybrids, pure HPIX or Ag@mSiO2 at the tested concentrations shows antifungal effect
- PDI efficacy on biofilm under LED illumination [5, 8]: negligible PDI efficacy
- antibiofilm effects without LED illumination [5, 7]: None of the Ag@mSiO2@HPIX hybrids, pure HPIX or Ag@mSiO2 at the tested concentrations shows antibiofilm effects
- PDI efficacy on biofilm under LED illumination [6, 8]: negligible PDI efficacy
- antibiofilm effects without LED illumination [6, 7]: None of the Ag@mSiO2@HPIX hybrids, pure HPIX or Ag@mSiO2 at the tested concentrations shows antibiofilm effects
- antibacterial effect without light illumination ([4]; parallel dark experiments): negligible antibacterial effect
